Reference: ChEMBL document CHEMBL1909046, “DrugMatrix in vitro pharmacology data”

Columns and labels:
[1] = target: T1, Alpha-2A adrenergic receptor (Homo sapiens, UniProt P08913); format: cell membranes, Sf9, Membrane; also: in other assays of this panel Not Active means under 50% inhibition at 10 µM
T1 sequence (P08913 whole entry): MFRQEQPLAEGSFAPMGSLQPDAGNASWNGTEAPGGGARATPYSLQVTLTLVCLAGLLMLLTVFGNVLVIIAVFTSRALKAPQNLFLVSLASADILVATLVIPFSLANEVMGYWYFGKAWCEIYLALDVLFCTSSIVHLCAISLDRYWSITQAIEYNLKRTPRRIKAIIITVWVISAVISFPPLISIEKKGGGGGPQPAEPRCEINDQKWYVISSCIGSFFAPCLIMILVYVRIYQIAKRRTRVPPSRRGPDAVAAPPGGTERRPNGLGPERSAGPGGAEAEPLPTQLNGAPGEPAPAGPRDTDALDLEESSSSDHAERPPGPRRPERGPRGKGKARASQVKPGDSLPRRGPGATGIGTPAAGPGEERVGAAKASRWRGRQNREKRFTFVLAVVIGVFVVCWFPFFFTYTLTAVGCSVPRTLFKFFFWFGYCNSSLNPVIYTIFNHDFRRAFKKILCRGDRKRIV

[2] = target: T2, Nitric oxide synthase, inducible (Mus musculus, UniProt P29477); set-up: species or system Escherichia coli;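 also: inhibition of iNOS enzyme activity measured with L-arginine as substrate; in other assays of this panel Not Active means under 50% inhibition at 10 µM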
T2 sequence (P29477 whole entry): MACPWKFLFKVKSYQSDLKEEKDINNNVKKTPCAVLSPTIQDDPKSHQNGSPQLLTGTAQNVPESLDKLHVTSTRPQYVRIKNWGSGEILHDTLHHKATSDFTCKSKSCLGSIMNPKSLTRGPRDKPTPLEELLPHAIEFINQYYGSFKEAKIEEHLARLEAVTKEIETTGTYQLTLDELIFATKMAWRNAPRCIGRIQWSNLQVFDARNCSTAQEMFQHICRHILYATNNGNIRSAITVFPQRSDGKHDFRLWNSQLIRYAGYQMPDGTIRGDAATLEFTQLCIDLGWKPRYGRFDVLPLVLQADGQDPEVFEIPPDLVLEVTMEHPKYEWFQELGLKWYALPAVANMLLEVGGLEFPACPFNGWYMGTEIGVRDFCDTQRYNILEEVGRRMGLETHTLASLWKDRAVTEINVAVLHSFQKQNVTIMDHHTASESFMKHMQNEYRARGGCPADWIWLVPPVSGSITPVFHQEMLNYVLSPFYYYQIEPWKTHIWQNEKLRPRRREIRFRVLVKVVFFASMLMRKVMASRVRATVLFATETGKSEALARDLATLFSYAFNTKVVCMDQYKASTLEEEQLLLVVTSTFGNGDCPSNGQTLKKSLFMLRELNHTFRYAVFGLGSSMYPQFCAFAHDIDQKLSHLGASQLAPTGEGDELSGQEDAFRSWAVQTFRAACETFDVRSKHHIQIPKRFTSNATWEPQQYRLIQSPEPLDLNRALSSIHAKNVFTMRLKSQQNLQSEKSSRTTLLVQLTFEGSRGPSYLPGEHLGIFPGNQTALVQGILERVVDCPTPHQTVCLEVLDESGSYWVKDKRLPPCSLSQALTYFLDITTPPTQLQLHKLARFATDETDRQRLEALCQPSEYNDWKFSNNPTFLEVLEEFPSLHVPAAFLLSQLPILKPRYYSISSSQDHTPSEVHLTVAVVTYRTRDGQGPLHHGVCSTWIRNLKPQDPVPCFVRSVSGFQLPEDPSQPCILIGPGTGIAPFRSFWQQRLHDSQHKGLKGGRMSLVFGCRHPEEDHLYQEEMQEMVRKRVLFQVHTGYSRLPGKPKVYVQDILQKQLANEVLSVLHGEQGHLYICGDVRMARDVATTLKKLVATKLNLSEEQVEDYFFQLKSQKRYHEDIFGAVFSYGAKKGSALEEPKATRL

[3] = DRUGMATRIX: Serotonin (5-Hydroxytryptamine) 5-HT3 radioligand binding (ligand: [3H] GR-65630); format: cell membranes, Membrane; details: hek293; Not Active = under 50% inhibition at 10 µM
[4] = target: T3, 3-hydroxy-3-methylglutaryl-coenzyme A reductase (Homo sapiens, UniProt P04035); set-up: species or system Escherichia coli;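 also: enzyme inhibition assay of HMG-CoA reductase using radiolabeled [14C]HMG-CoA as substrate; in other assays of this panel Not Active means under 50% inhibition at 10 µM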
T3 sequence (P04035 whole entry): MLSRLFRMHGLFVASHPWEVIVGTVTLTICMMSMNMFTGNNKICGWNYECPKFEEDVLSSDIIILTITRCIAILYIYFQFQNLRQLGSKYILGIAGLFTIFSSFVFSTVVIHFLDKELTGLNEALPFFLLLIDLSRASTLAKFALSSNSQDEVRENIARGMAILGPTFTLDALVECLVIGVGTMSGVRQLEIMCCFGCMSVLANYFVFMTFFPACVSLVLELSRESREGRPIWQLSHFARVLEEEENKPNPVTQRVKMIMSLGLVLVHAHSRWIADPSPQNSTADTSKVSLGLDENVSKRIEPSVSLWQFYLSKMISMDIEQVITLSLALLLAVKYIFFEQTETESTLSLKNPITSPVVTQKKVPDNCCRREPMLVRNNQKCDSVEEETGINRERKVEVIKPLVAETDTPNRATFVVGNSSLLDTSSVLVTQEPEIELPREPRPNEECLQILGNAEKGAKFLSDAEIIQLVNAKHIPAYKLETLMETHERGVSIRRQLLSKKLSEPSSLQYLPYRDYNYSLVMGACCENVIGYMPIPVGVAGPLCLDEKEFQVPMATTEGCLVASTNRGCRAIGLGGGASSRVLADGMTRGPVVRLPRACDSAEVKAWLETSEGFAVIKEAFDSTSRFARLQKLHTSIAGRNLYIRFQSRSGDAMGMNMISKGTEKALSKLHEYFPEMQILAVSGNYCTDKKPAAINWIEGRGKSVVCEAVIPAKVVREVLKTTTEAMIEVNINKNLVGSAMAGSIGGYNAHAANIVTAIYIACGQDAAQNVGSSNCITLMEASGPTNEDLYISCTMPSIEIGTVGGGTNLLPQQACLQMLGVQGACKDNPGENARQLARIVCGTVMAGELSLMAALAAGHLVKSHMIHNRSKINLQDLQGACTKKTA

[5] = target: 5-hydroxytryptamine receptor 1B (Rattus norvegicus, UniProt P28564); format: cell membranes, Wistar, Cerebral cortex, Membrane; also: in other assays of this panel Not Active means under 50% inhibition at 10 µM
[6] = target: 5-hydroxytryptamine receptor 2B (Homo sapiens, UniProt P41595); format: cell membranes, CHO-K1, Membrane; details: cho-k1; also: in other assays of this panel Not Active means under 50% inhibition at 10 µM
5-hydroxytryptamine receptor 2B, sequence (P41595 whole entry): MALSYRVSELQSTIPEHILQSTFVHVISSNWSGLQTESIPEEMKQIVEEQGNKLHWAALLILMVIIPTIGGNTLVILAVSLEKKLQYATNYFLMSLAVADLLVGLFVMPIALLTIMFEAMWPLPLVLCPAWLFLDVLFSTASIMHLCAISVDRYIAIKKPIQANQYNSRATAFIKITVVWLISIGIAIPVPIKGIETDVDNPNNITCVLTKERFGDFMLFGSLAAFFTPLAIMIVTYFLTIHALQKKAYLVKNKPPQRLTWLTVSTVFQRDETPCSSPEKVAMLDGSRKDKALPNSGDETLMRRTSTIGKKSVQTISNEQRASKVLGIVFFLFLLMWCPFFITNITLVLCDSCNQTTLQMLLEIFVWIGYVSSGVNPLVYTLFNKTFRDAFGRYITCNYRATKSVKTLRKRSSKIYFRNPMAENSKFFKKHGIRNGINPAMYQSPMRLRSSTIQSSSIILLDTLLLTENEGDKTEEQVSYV

5-hydroxytryptamine receptor 1B, sequence (P28564 whole entry): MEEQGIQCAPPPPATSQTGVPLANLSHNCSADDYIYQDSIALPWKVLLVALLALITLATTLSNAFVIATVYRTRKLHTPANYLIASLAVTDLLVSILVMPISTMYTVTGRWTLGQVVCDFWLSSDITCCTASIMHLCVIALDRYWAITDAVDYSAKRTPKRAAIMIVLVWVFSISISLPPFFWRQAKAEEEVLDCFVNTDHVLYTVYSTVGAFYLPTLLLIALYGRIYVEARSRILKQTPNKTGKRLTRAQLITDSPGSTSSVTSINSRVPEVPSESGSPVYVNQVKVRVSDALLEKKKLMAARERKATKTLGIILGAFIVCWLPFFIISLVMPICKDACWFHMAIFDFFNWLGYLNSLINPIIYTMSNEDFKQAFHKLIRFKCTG

SMILES	IC50 ([1]; sf9)	IC50 [2]	IC50 [3]	Ki [3]	IC50 [4]	IC50 [5]	IC50 [6]	IC50 ([1]; read-out: IC50) [nM]	Ki ([1]; read-out: Ki) [nM]
C[C@]12CC[C@H]3[C@@H](CCC4=CC(=O)CC[C@@H]43)[C@@H]1CC[C@@H]2O [NANDROLONE]	Not Active	Not Active	Not Active	Not Active	Not Active	Not Active	Not Active		
N=C(N)c1ccc(OCCCCCOc2ccc(C(=N)N)cc2)cc1 [PENTAMIDINE]		Not Active	Not Active	Not Active	Not Active	Not Active	Not Active	1380	516
CCOc1nc2cccc(C(=O)O)c2n1Cc1ccc(-c2ccccc2-c2nnn[nH]2)cc1	Not Active	Not Active	Not Active	Not Active	Not Active	Not Active	Not Active		
COc1cccc2c1C(=O)c1c(O)c3c(c(O)c1C2=O)C[C@@](O)(C(C)=O)C[C@@H]3O[C@H]1C[C@H](N)[C@H](O)[C@H](C)O1 [DAUNORUBICIN]	Not Active	Not Active	Not Active	Not Active	Not Active	Not Active	Not Active		
CC(O)(P(=O)(O)O)P(=O)(O)O [ETIDRONIC ACID]	Not Active	Not Active	Not Active	Not Active	Not Active	Not Active	Not Active		
CC(=O)Oc1ccccc1C(=O)O [ASPIRIN]	Not Active	Not Active	Not Active	Not Active	Not Active	Not Active	Not Active		
O=c1[nH]c(=O)n([C@H]2C[C@H](O)[C@@H](CO)O2)cc1F [FLOXURIDINE]	Not Active	Not Active	Not Active	Not Active	Not Active	Not Active	Not Active		
O=C(O)CC(O)(CC(=O)O)C(=O)O [CITRIC ACID]	Not Active	Not Active	Not Active	Not Active	Not Active	Not Active	Not Active		
CCCCC1=NC2(CCCC2)C(=O)N1Cc1ccc(-c2ccccc2-c2nnn[nH]2)cc1 [IRBESARTAN]	Not Active	Not Active	Not Active	Not Active	Not Active	Not Active	Not Active		
O=c1c(-c2ccc(O)cc2)coc2cc(O)cc(O)c12 [GENISTEIN]	Not Active	Not Active	Not Active	Not Active	Not Active	Not Active	Not Active		
CN(C)C(=N)NC(=N)N [METFORMIN]	Not Active	Not Active	Not Active	Not Active	Not Active	Not Active	Not Active		
C[C@H]1O[C@H](O[C@H]2[C@H](O)[C@@H](O)[C@@H](O[C@H]3[C@H](O)[C@@H](O)C(O)O[C@@H]3CO)O[C@@H]2CO)[C@H](O)[C@@H](O)[C@@H]1N[C@H]1C=C(CO)[C@@H](O)[C@H](O)[C@H]1O (some centres not stated) [ACARBOSE]	Not Active	Not Active	Not Active	Not Active	Not Active	Not Active	Not Active		
COc1ccccc1N	Not Active	Not Active	Not Active	Not Active	Not Active	Not Active	Not Active		
